Reference: paper PMC3281083, “Impact of the Herbal Medicine Sophora flavescens on the Oral Pharmacokinetics of Indinavir in Rats: The Involvement of CYP3A and P-Glycoprotein” (PLoS ONE, 2012)
Like-named read-outs stand apart in the source and are kept apart here.

How the values were obtained:
[1] = Multiple-dose oral pharmacokinetics of indinavir (plasma) with co-administered Sophora preparations; assay type: in vivo, Male Wistar rats; details: male, Wistar, rat, 40 mg/kg; for AUC(0-inf) / CL/F / Cmax / Tmax: po; for AUC(0-inf): read-out: AUC0-∞ of indinavir
Description: Thirty rats were randomly designated as vehicle control, low-dose and high-dose Sophora treatment groups (ten rats in each group). A separate experiment was performed using eighteen rats designated as vehicle control, oxymatrine capsule and Sophora EA fraction groups (six rats in each group). […] Indinavir from […]® capsule (Merck & CO. Inc., Whitehouse Station, NJ, USA) was dissolved in 50 mM citric acid, and the oxymatrine capsule contents were dissolved in distilled water. […] The treatments were given twice a day (9 a.m. and 7 p.m.) for 7 consecutive days. The dosages were designed on the basis of clinical doses in human. The daily dose of S. flavescens recommended by the Chinese Pharmacopoeia is 4.5-9 g of raw herb per day. […] Taking the low and high ends of these dose ranges, and using a conversion based on the body-surface-area ratio between rats and human, an animal dose range of 0.45-1.8 g/kg/day (raw herb equivalent) was estimated for experimental rats. […] Plasma was obtained by centrifugation at 7,000× g for 15 min at 4°C and frozen at -80°C prior to analysis. […] Organ tissues, including liver and intestine, were isolated, rinsed with saline, blotted dried, snap-frozen in liquid nitrogen, and stored at -80°C until use. […] Midazolam was used as the internal standard. […] The residues were reconstituted with 200 μL of methanol-water (v/v, 1∶1) solution. The faeces were homogenized in about 4-fold volume of distilled water. The homogenates were extracted with equal volume of acetonitrile. After centrifugation, 1 mL of the supernatant was transferred to a glass tube, and was subsequently subjected to addition of midazolam, alkalization, extraction with ethyl acetate, drying and reconstitution. All reconstituted samples (60 μL) were separated on a Prevail C18 column (250 mm×4.6 mm […]) by an Agilent 1100 HPLC system (Agilent Technologies, Santa Clara, CA, USA). The flow rate was 0.8 mL/min. […] The effluent was introduced to APCI-MS (Agilent 1100 series LC/MSD Trap SL system, Santa Clara, CA, USA) with positive detection mode. […] Extract ion chromatograms at m/z 614 (indinavir) and m/z 326 (midazolam) were used for quantification (Figure S1). Quantification of indinavir was performed on six levels of standards in blank plasma or faeces homogenate. […] The recovery of the analyte ranged from 80% to 90%. […] The area under the plasma concentration-time curves from zero to infinity (AUC0-∞) was calculated by the trapezoidal rules. Clearance (CL) was calculated by the equation (F×Dose)/AUC0-∞, where F is the fraction of dose available in the systemic circulation. Peak plasma concentration (Cmax) and the time when it occurred (T max) were derived directly from the curves. Statistical differences were determined by unpaired Student's t test or one-way analysis of variance (one-way ANOVA) followed by Dunnett's post test. All tests were two-tailed and the significance was set at P<0.05.

[2] = design: method as in PMID 10604964, PMID 10497146; details: rats; cited from earlier work
[3] = design: method as in PMID 15771225; details: low solubility/high permeability/extensive metabolism; cited from earlier work
[4] = indinavir 40 mg/kg orally, multiple dosage, with EA fraction 0.164 g/kg/day, mean ± S.E.M.
[5] = indinavir 40 mg/kg orally, multiple dosage, with Oxymatrine (capsule) 90 mg/kg/day, mean ± S.E.M.
[6] = indinavir 40 mg/kg orally, multiple dosage, with Sophora extract 0.316 g/kg/day, mean ± S.E.M.
[7] = indinavir 40 mg/kg orally, multiple dosage, with Sophora extract 1.26 g/kg/day, mean ± S.E.M.
[8] = indinavir 40 mg/kg orally, multiple dosage, with vehicle control, mean ± S.E.M.

`CC(C)(C)NC(=O)[C@@H]1CN(Cc2cccnc2)CCN1C[C@@H](O)C[C@@H](Cc1ccccc1)C(=O)N[C@H]1c2ccccc2C[C@H]1O` [indinavir] gave a C0 ([1]; oral, day 8, before last indinavir dose, detectable, below limit of quantification, read-out: Plasma indinavir concentration at time zero) of less than 50 ng/mL, an AUC(0-inf) ([1]; indinavir 40 mg/kg orally twice a day for 7 days, last dose day 8, with vehicle control (1.5% Tween 80), mean ± S.E.M.) of 16100 ± 990 ng·h/mL and a CL/F [1, 4] of 57.6 mL/min/kg. For the same compound, the Cmax [1, 4] was 8410 ± 860 ng/mL, the AUC(0-inf) [1, 4] was 12300 ± 1310 ng·h/mL and the Tmax ([1]; indinavir 40 mg/kg orally, multiple dosage, with EA fraction 0.164 g/kg/day, mean ± S.E.M., read-out: T max of indinavir) was 40.2 ± 9 min. For the same compound, the CL/F [1, 5] was 159 mL/min/kg, the Cmax [1, 5] was 4970 ± 810 ng/mL and the AUC(0-inf) [1, 5] was 5290 ± 1110 ng·h/mL. The Tmax ([1]; indinavir 40 mg/kg orally, multiple dosage, with Oxymatrine (capsule) 90 mg/kg/day, mean ± S.E.M., read-out: T max of indinavir) was 25.2 ± 7.2 min, the CL/F [1, 6] was 101 mL/min/kg and the Cmax [1, 6] was 7170 ± 690 ng/mL. The AUC(0-inf) [1, 6] was 7230 ± 870 ng·h/mL, the Tmax ([1]; indinavir 40 mg/kg orally, multiple dosage, with Sophora extract 0.316 g/kg/day, mean ± S.E.M., read-out: T max of indinavir) was 37.2 ± 7.2 min and the CL/F [1, 7] was 316 mL/min/kg. It also gave a Cmax [1, 7] of 3090 ± 1080 ng/mL, an AUC(0-inf) [1, 7] of 2780 ± 610 ng·h/mL and a Tmax ([1]; indinavir 40 mg/kg orally, multiple dosage, with Sophora extract 1.26 g/kg/day, mean ± S.E.M., read-out: T max of indinavir) of 30 ± 11.4 min. The CL/F [1, 8] was 42.8 mL/min/kg, the Cmax [1, 8] was 11500 ± 670 ng/mL and the Tmax ([1]; indinavir 40 mg/kg orally, multiple dosage, with vehicle control, mean ± S.E.M., read-out: T max of indinavir) was 30 ± 6 min. The Tmax ([1]; oral, read-out: T max of indinavir determined in our study) was 30 to 37 min, the Oral bioavailability [2] was 26% and the “Metabolic (drug disposition) class” value [3] was “Class 2”.
